Data as given in publication PMC12892976, “Alkylation-based optimization of antifungal FPPS inhibitors yields a potent, broad-spectrum lipophilic zoledronate derivative” (mBio, 2025).
Values after ≈ are worked out from the molar mass of the structure shown.

Experiments:
[1] = tested on: Candida albicans; assay: MIC/MFC broth microdilution (CLSI); assay type: cell-based; conditions: Candida albicans SC5314
Procedure: (§1) Antifungal susceptibility was determined by broth microdilution according to the CLSI guidelines described in M27-Ed4 ([16]). […] MFC was determined by back-plating drug-treated cultures from MIC broths onto SDA plates. The MFC was defined as the lowest concentration from which no colonies could be cultured.

[2] = tested on: Fusarium oxysporum; assay: checkerboard drug interaction (FICI, MICc); assay type: cell-based;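 further: simplified diagonal checkerboard screen pairing antifungals with FPPS inhibitors, FICI calculated under the Loewe additivity model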
Procedure: (§2) Drug interactions between antifungals and FPPS inhibitors were investigated using a simplified checkerboard diagonal screening method ([45]). […] FICIs were determined according to the Loewe additivity model ([17]).

[3] = tested on: Aspergillus fumigatus; assay: checkerboard drug interaction (FICI, MICc); assay type: cell-based;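 further: simplified diagonal checkerboard screen pairing antifungals with FPPS inhibitors against Aspergillus fumigatus, with FICI calculated under the Loewe additivity model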
Procedure: as §2

[4] = tested on: Aspergillus fumigatus; assay: MIC/MFC broth microdilution (CLSI); conditions: ATCC204305
Procedure: as §1

[5] = tested on: Cryptococcus neoformans; assay: MIC/MFC broth microdilution (CLSI); conditions: for MIC / MEC: Cryptococcus neoformans H99;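 on all read-outs here: susceptibility testing followed the CLSI M27-Ed4 broth microdilution document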
Procedure: as §1

[6] = tested on: Candida glabrata; assay: MIC/MFC broth microdilution (CLSI); conditions: for MIC / MEC: Candida glabrata CBS138 (ATCC 2001);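 on all read-outs here: broth microdilution following CLSI M27-Ed4, MFC taken as the lowest drug level yielding no growth once MIC wells were subcultured on SDA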
Procedure: as §1

[7] = tested on: Saccharomyces cerevisiae; assay: MIC/MFC broth microdilution (CLSI); assay type: cell-based; conditions: Saccharomyces cerevisiae S288c
Procedure: as §1

[8] = tested on: Candida glabrata; assay: checkerboard drug interaction (FICI, MICc); assay type: cell-based;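 further: simplified diagonal checkerboard screen pairing antifungals with FPPS inhibitors, FICI calculated under the Loewe additivity model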
Procedure: as §2

[9] = tested on: Candida albicans; assay: checkerboard drug interaction (FICI, MICc); assay type: cell-based;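 further: antifungal plus FPPS inhibitor combinations on Candida albicans tested by a simplified diagonal checkerboard screen, with FICI calculated under the Loewe additivity model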
Procedure: as §2

[10] = tested on: Cryptococcus deuterogattii; assay: checkerboard drug interaction (FICI, MICc); assay type: cell-based;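 further: simplified diagonal checkerboard screen pairing antifungal drugs with FPPS inhibitors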
Procedure: as §2

[11] = tested on: Saccharomyces cerevisiae; assay: checkerboard drug interaction (FICI, MICc); assay type: cell-based;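 further: simplified diagonal checkerboard screen pairing antifungals with FPPS inhibitors, FICI calculated under the Loewe additivity model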
Procedure: as §2

[12] = tested on: Trichophyton rubrum; assay: checkerboard drug interaction (FICI, MICc); assay type: cell-based;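 further: simplified diagonal checkerboard screen pairing azole antifungals with FPPS inhibitors, FICI calculated under the Loewe additivity model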
Procedure: as §2

[13] = tested on: Trichophyton rubrum; assay: MIC/MFC broth microdilution (CLSI); conditions: for MIC / MEC: Trichophyton rubrum R-218
Procedure: as §1

[14] = tested on: Cryptococcus neoformans; assay: checkerboard drug interaction (FICI, MICc); assay type: cell-based;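 further: antifungal plus FPPS inhibitor pairs tested against Cryptococcus neoformans by simplified diagonal checkerboard screening, FICI computed under the Loewe additivity model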
Procedure: as §2

[15] = tested on: Cryptococcus deuterogattii; assay: MIC/MFC broth microdilution (CLSI); conditions: for MIC / MEC: Cryptococcus deuterogattii R265;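 on all read-outs here: broth microdilution per CLSI M27-Ed4. MFC is the lowest concentration yielding no colonies when MIC broths are subcultured onto SDA plates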
Procedure: as §1

[16] = tested on: Aspergillus flavus; assay: checkerboard drug interaction (FICI, MICc); assay type: cell-based
Procedure: as §2

[17] = tested on: Aspergillus flavus; assay: MIC/MFC broth microdilution (CLSI); conditions: ATCC204304
Procedure: as §1

[18] = tested on: Scedosporium apiospermum; assay: checkerboard drug interaction (FICI, MICc); assay type: cell-based;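 further: simplified diagonal checkerboard screen of antifungal plus FPPS inhibitor pairs, with FICI computed under the Loewe additivity model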
Procedure: as §2

| Compound | MIC / MEC [1] [µg/mL] | antifungal MICc ([2]; in combination with ZOL) | antifungal MICc ([3]; in combination with 10-ZOL) | antifungal MICc ([3]; in combination with ZOL) | MIC / MEC [5] [µg/mL] | MIC / MEC [6] [µg/mL] | MIC / MEC [7] [µg/mL] | antifungal MICc ([8]; in combination with 10-ZOL) | antifungal MICc ([8]; in combination with ZOL) | antifungal MICc ([9]; in combination with 10-ZOL) | antifungal MICc ([9]; in combination with ZOL) | antifungal MICc ([10]; in combination with 10-ZOL) | antifungal MICc ([10]; in combination with ZOL) | antifungal MICc ([11]; in combination with 10-ZOL) | antifungal MICc ([11]; in combination with ZOL) | antifungal MICc ([12]; in combination with 10-ZOL) | antifungal MICc ([12]; in combination with ZOL) | MIC / MEC [13] [µg/mL] | antifungal MICc ([14]; in combination with 10-ZOL) | antifungal MICc ([14]; in combination with ZOL) | also measured |
| --- | --- | --- | --- | --- | --- | --- | --- | --- | --- | --- | --- | --- | --- | --- | --- | --- | --- | --- | --- | --- | --- |
| Nc1nc(=O)[nH]cc1F [5FC, 5-flucytosine] | 0.25 (≈ 1.94 µM) | 512 | 256 | 128 | 4 (≈ 31 µM) | 0.25 (≈ 1.94 µM) | 1 (≈ 7.75 µM) | 0.125 | 0.125 | 0.125 | 0.25 | 0.5 | 0.125 | 1 | 1 | 32 | 128 | >64 | 0.25 | 1 | antifungal MICc ([2]; in combination with 10-ZOL): 512; MIC / MEC [4]: >64 µg/mL; MIC / MEC [15]: 8 µg/mL (≈ 62 µM); antifungal MICc ([16]; in combination with 10-ZOL): 256; antifungal MICc ([16]; in combination with ZOL): 128; MIC / MEC [17]: >64 µg/mL; antifungal MICc ([18]; in combination with 10-ZOL): 256; antifungal MICc ([18]; in combination with ZOL): 256 |
| C[C@@H]1[C@H](O)[C@@H](C)/C=C/C=C/C=C/C=C/C=C/C=C/C=C/[C@H](O[C@@H]2O[C@H](C)[C@@H](O)[C@H](N)[C@@H]2O)C[C@@H]2O[C@](O)(C[C@@H](O)C[C@@H](O)[C@H](O)CC[C@@H](O)C[C@@H](O)CC(=O)O[C@H]1C)C[C@H](O)[C@H]2C(=O)O [AMB, amphotericin B] | 0.25 (≈ 0.271 µM) | 0.5 | 0.125 | 0.25 | 0.25 (≈ 0.271 µM) | 0.25 (≈ 0.271 µM) | 0.25 (≈ 0.271 µM) | 0.5 | 0.125 | 0.25 | 0.25 | 0.25 | 0.25 | 0.25 | 0.5 | 0.5 | 2 | 1 (≈ 1.08 µM) | 0.5 | 0.5 | antifungal MICc ([2]; in combination with 10-ZOL): 1; MIC / MEC [4]: 0.25 µg/mL (≈ 0.271 µM); MIC / MEC [15]: 0.25 µg/mL (≈ 0.271 µM); antifungal MICc ([16]; in combination with 10-ZOL): 0.5; antifungal MICc ([16]; in combination with ZOL): 0.25; MIC / MEC [17]: 0.5 µg/mL (≈ 0.541 µM); antifungal MICc ([18]; in combination with 10-ZOL): 2; antifungal MICc ([18]; in combination with ZOL): 8 |
| CC[C@H](C)C[C@H](C)CCCCCCCCC(=O)N[C@H]1C[C@@H](O)[C@@H](NCCN)NC(=O)[C@@H]2[C@@H](O)CCN2C(=O)[C@H]([C@H](O)CCN)NC(=O)[C@H]([C@H](O)[C@@H](O)c2ccc(O)cc2)NC(=O)[C@@H]2C[C@@H](O)CN2C(=O)[C@H]([C@@H](C)O)NC1=O [CAS, caspofungin] | 0.13 (≈ 0.119 µM) | 64 | 8 | 8 | 8 (≈ 7.32 µM) | 0.13 (≈ 0.119 µM) | 0.5 (≈ 0.457 µM) | 0.125 | 0.25 | 0.063 | 0.25 | 4 | 16 | 0.125 | 0.5 | 0.25 | 0.063 | 0.25 (≈ 0.229 µM) | 2 | 16 | antifungal MICc ([2]; in combination with 10-ZOL): 128; MIC / MEC [4]: 16 µg/mL (≈ 14.6 µM); MIC / MEC [15]: 16 µg/mL (≈ 14.6 µM); antifungal MICc ([16]; in combination with 10-ZOL): 2; antifungal MICc ([16]; in combination with ZOL): 4; MIC / MEC [17]: 8 µg/mL (≈ 7.32 µM); antifungal MICc ([18]; in combination with 10-ZOL): 16; antifungal MICc ([18]; in combination with ZOL): 32 |
| OC(Cn1cncn1)(Cn1cncn1)c1ccc(F)cc1F [FLC, fluconazole] | 0.5 (≈ 1.63 µM) | 64 | 8 | 64 | 4 (≈ 13.1 µM) | 4 (≈ 13.1 µM) | 4 (≈ 13.1 µM) | 1 | 0.25 | 1 | 2 | 2 | 4 | 1 | 1 | 8 | 16 | 64 (≈ 209 µM) | 2 | 4 | MFC [1]: 4 µg/mL (≈ 13.1 µM); MIC [1]: 0.5 µg/mL (≈ 1.63 µM); effective concentration in combination ([3]; FLC with 10-ZOL added, A. fumigatus): 8 µg/mL; MIC ([5]; Cryptococcus neoformans): 2 µg/mL (≈ 6.53 µM); MIC ([6]; Nakaseomyces glabratus, CBS138): 4 µg/mL (≈ 13.1 µM); MFC [7]: 64 µg/mL (≈ 209 µM); MIC [7]: 4 µg/mL (≈ 13.1 µM); MIC ([13]; Trichophyton rubrum): 64 µg/mL (≈ 209 µM); MIC ([15]; Cryptococcus deuterogattii): 2 µg/mL (≈ 6.53 µM); MIC / MEC [15]: 4 µg/mL (≈ 13.1 µM); antifungal MICc ([16]; in combination with 10-ZOL): 32; antifungal MICc ([16]; in combination with ZOL): 64; MIC [17]: 64 µg/mL (≈ 209 µM) |
| C[C@@H](c1ncncc1F)[C@](O)(Cn1cncn1)c1ccc(F)cc1F [VOR] | 0.13 (≈ 0.372 µM) | 4 | 0.25 | 2 | 0.13 (≈ 0.372 µM) | 0.25 (≈ 0.716 µM) | 0.5 (≈ 1.43 µM) | 0.25 | 0.0625 | 0.063 | 0.125 | 0.125 | 0.063 | 0.25 | 0.25 | 0.25 | 0.25 | 1 (≈ 2.86 µM) | 0.063 | 0.0625 | antifungal MICc ([2]; in combination with 10-ZOL): 1; MIC / MEC [4]: 0.5 µg/mL (≈ 1.43 µM); MIC / MEC [15]: 0.25 µg/mL (≈ 0.716 µM); antifungal MICc ([16]; in combination with 10-ZOL): 0.06; antifungal MICc ([16]; in combination with ZOL): 0.25; MIC / MEC [17]: 0.5 µg/mL (≈ 1.43 µM); antifungal MICc ([18]; in combination with 10-ZOL): 0.5; antifungal MICc ([18]; in combination with ZOL): 1 |
